Laboratory results published in US20040147452A1, “Non-amphoteric glutathione derivative compositions for tropical application” (priority 2002, published 2004).
Read-outs that look alike come from different tables or passages of the source.

Key:
[1] = tested on: chronic nummular eczema; settings: 10% cream of Preparation Example 2, topically twice daily for two days, subject, right lower leg
Experimental: A solution containing a non-amphoteric glutathione derivative was prepared. […] The solution was mixed uniformly with 70 g cream base.

[2] = tested on: forearm skin; settings: 5% solution with L-arginine; for increase in skin thickness: forearm
Experimental: The combined thickness of two whole-skin layers including thickness of the two hinge leaves was measured with micrometer calipers. The thickness of the two hinge leaves was subtracted to determine the actual thickness of two whole-skin layers. Triplicate measurements on treated sites were done and an average number was used for calculation of the skin thickness.
The solution thus prepared contained 5% non-amphoteric glutathione derivative. For comparative study, glutathione 5 g and L-arginine 1 g were dissolved in 94 ml solution prepared from water 70 parts and propylene glycol 30 parts. The solution thus prepared contained 5% amphoteric glutathione.
A subject, applied topically twice daily the above 5% amphoteric glutathione solution to their left forearm and 5% non-amphoteric glutathione derivative to their right forearm for four weeks.
A solution containing a non-amphoteric glutathione derivative was prepared. […] The solution thus prepared contained 5% non-amphoteric glutathione derivative.
A subject, applied topically twice daily the above 5% non-amphoteric glutathione derivative to their right forearm for eight weeks.
A subject, applied topically twice daily the above 5% non-amphoteric glutathione derivative to their left forearm for eight weeks.

[3] = tested on: X-linked ichthyosis with severe dry skin; settings: 3% cream under test chambers on forearm, subject
Experimental: A solution containing a non-amphoteric glutathione derivative was prepared. N-Acetyl-glutathione diethyl ester 3 g was dissolved in warm propylene glycol 17 ml, and the solution was mixed with 80 g oil-in-water cream base or hydrophilic ointment. The cream contained 3% non-amphoteric N-acetyl-glutathione diethyl ester.
A subject who had X-linked ichthyosis with severe dry skin participated in this study. Test spots were I cm square sites on extensor surface of forearm, a grid pattern formed by Hayes Test Chambers on Hayes adhesive strips. Each test chamber contained a square piece of filter paper which was fully saturated with the non-amphoteric glutathione derivative cream. Test chambers were impressed on the skin to leave outlines which were marked with SANFORD® SHARPIE® permanent marker. Sites were re-marked at each successive application of the test cream. Chambers were removed twice weekly, and replaced with a new adhesive strip of chambers with filter paper saturated with the test cream. The test was carried out for two weeks.

[4] = topically twice daily for four weeks, subject

SMILES | areas of the eczematous lesions reduced [1] [%] | appearance of treated forearm skin ([2]; topically twice daily for eight weeks, one subject per example) | increase in skin thickness [2, 4] | appearance of treated forearm skin [2, 4] | clinical evaluation, improvement of rough and scaly skin ([3]; after one week) [%] | appearance of severe dry skin ([3]; after two weeks)
COC(=O)CNC(=O)[C@H](CS)NC(=O)CC[C@H](N)C(=O)OC.Cl [glutathione dimethyl ester, Glutathione dimethyl ester hydrochloride] | 75 | more firm, smooth, plump and minimally wrinkled when lifted | 10% | more firm, smooth, plump and minimally wrinkled when lifted | – | –
CCOC(=O)CNC(=O)[C@H](CS)NC(=O)CC[C@H](NC(C)=O)C(=O)OCC [N-acetyl-glutathione diethyl ester, N-Acetyl-glutathione diethyl ester] | – | – | – | – | 90 | smooth and normal-looking
N[C@@H](CCC(=O)N[C@@H](CS)C(=O)NCC(=O)O)C(=O)O [glutathione] | – | – | no change | still loose, relatively thin and wrinkled when lifted | – | –
